Values joined by “and” are separate entries in the source; they are usually repeats but may differ in a detail not shown here. Equal values may be shown once.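 Results reflect a 48-hour exposure of cells in 96-well plates to compound at five concentrations. The concentration for 50% growth inhibition is given as GI50. TGI: total growth inhibition.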 *1 amine or outer side, *2 acyl side, *3 side chain or, on linkers, in order; H or OH if unused. Where a SMILES comes first, the peptide text is derived from it. Bridges are numbered along the chain shown (N, C = ends). Roman numbers before positions name the chains, in order. [ ]: non-standard residue; d: D form. Actinocin(9to1) = Cc1c2oc3c(C)ccc(C(=O)[*:1])c3nc-2c(C(=O)[*:2])c(N)c1=O; NMeF = CN[CH](Cc1ccccc1)C(=O)O; Sar = CNCC(=O)O
Legend:
Assay in all cases: growth of human tumour cells (NCI), 48 h
[1] = system: CCRF-CEM leukemia
[2] = system: KM12 colon
[3] = system: MOLT-4 leukemia
[4] = system: NCI-H226 lung
[5] = system: NCI-H460 lung
[6] = system: OVCAR-3 ovarian
[7] = system: OVCAR-4 ovarian
[8] = system: SK-OV-3 ovarian
[9] = system: UACC-62 melanoma
[10] = system: MDA-MB-435

Question: With `CCCCCCCCCCC(C)CCCCCCC(=O)O` (stereo not given) as the compound, how does the TGI [1] read?
Answer: The TGI was over 100 µM.

Question: And the TGI [2]?
Answer: Its TGI is over 100 µM.

Question: What about the TGI [3] of the same compound?
Answer: The TGI was over 100 µM.

Question: What about the TGI [4] of the same compound?
Answer: The TGI was over 100 µM.

Question: And the TGI [5]?
Answer: The TGI was over 100 µM.

Question: And the TGI [6]?
Answer: The TGI was over 100 µM.

Question: What about the TGI [7] of the same compound?
Answer: The TGI was over 100 µM.

Question: And the TGI [8]?
Answer: Its TGI is over 100 µM.

Question: And the TGI [9]?
Answer: The TGI was over 100 µM.

Question: With `O=C(O)/C(=C\c1ccncc1)c1cccc2ccccc12` as the compound, how does the TGI [1] read?
Answer: The TGI was over 100 µM.

Question: And the TGI [2]?
Answer: The TGI was over 100 µM.

Question: And the TGI [10]?
Answer: The TGI was over 100 µM.

Question: And the TGI [3]?
Answer: The TGI was over 100 µM.

Question: And the TGI [5]?
Answer: The TGI was over 100 µM.

Question: What about the TGI [6] of the same compound?
Answer: The TGI was over 100 µM.

Question: What about the TGI [7] of the same compound?
Answer: The TGI was over 100 µM.

Question: What about the TGI [8] of the same compound?
Answer: Its TGI is over 100 µM.

Question: Which TGI [2] does the source give for `CCN(CC)CCNC(=O)c1cccc2nc3ccccc3nc12` here?
Answer: Its TGI is 45.8 µM.

Question: What about the TGI [3] of the same compound?
Answer: Its TGI is 37.3 µM.

Question: What about the TGI [4] of the same compound?
Answer: The TGI was 34.2 µM.

Question: And the TGI [6]?
Answer: The TGI was over 50 µM.

Question: What about the TGI [7] of the same compound?
Answer: Its TGI is 38.8 µM.

Question: What about the TGI [8] of the same compound?
Answer: Its TGI is over 100 µM.

Question: What about the TGI [9] of the same compound?
Answer: Its TGI is 45.9 µM.

Question: Which TGI [1] does the source give for `O=C(CC/C(CC(=O)c1ccc(Br)cc1)=N\O)Nc1ccc(Cl)c(Cl)c1` here?
Answer: The TGI was over 100 µM.

Question: What about the TGI [2] of the same compound?
Answer: Its TGI is over 100 µM.

Question: And the TGI [3]?
Answer: Its TGI is over 100 µM.

Question: And the TGI [4]?
Answer: The TGI was over 100 µM.

Question: And the TGI [5]?
Answer: The TGI was over 100 µM.

Question: And the TGI [6]?
Answer: The TGI was over 100 µM.

Question: And the TGI [7]?
Answer: The TGI was over 100 µM.

Question: What about the TGI [8] of the same compound?
Answer: Its TGI is over 100 µM.

Question: What about the TGI [9] of the same compound?
Answer: Its TGI is over 100 µM.

Question: With `CN(C)CC/C(=N\Nc1ccc(Cl)cc1Cl)c1ccccc1` as the compound, how does the TGI [1] read?
Answer: Its TGI is 31.2 µM.

Question: What about the TGI [2] of the same compound?
Answer: The TGI was 31.2 µM.

Question: And the TGI [3]?
Answer: Its TGI is 42 µM.

Question: What about the TGI [5] of the same compound?
Answer: Its TGI is 28.3 µM.

Question: And the TGI [6]?
Answer: Its TGI is 27 µM.

Question: And the TGI [8]?
Answer: The TGI was 24.8 µM.

Question: And the TGI [9]?
Answer: The TGI was 27.7 µM.

Question: Which GI50 [1] does the source give for `CCC[CH2][Sn]1([CH2]CCC)[O]CC(C)[O]1` (stereo not given) here?
Answer: The GI50 was 0.314 µM.

Question: What about the TGI [1] of the same compound?
Answer: Its TGI is 0.97 µM.

Question: And the GI50 [2]?
Answer: Its GI50 is 2.1 µM.

Question: And the TGI [2]?
Answer: Its TGI is 6.23 µM.

Question: And the GI50 [3]?
Answer: Its GI50 is 0.56 µM.

Question: And the TGI [3]?
Answer: The TGI was 3 µM.

Question: What about the GI50 [4] of the same compound?
Answer: Its GI50 is 2.11 µM.

Question: And the TGI [4]?
Answer: Its TGI is 4.62 µM.

Question: And the GI50 [5]?
Answer: Its GI50 is 2.94 µM.

Question: What about the TGI [5] of the same compound?
Answer: Its TGI is 13.9 µM.

Question: And the GI50 [6]?
Answer: Its GI50 is 1.37 µM.

Question: And the TGI [6]?
Answer: Its TGI is 2.67 µM.

Question: And the GI50 [7]?
Answer: The GI50 was 1.59 µM.

Question: And the TGI [7]?
Answer: The TGI was 3.45 µM.

Question: What about the GI50 [8] of the same compound?
Answer: The GI50 was 3.56 µM.

Question: What about the TGI [8] of the same compound?
Answer: Its TGI is 10.4 µM.

Question: What about the GI50 [9] of the same compound?
Answer: Its GI50 is 1.31 µM.

Question: What about the TGI [9] of the same compound?
Answer: Its TGI is 2.91 µM.

Question: Which TGI [1] does the source give for `Cc1cccc2c(O)cc(=O)oc12` here?
Answer: Its TGI is over 100 µM.

Question: And the TGI [2]?
Answer: The TGI was over 100 µM.

Question: What about the TGI [3] of the same compound?
Answer: Its TGI is over 100 µM.

Question: What about the TGI [4] of the same compound?
Answer: Its TGI is over 100 µM.

Question: And the TGI [5]?
Answer: The TGI was over 100 µM.

Question: What about the TGI [6] of the same compound?
Answer: The TGI was over 100 µM.

Question: And the TGI [7]?
Answer: Its TGI is over 100 µM.

Question: And the TGI [8]?
Answer: The TGI was over 100 µM.

Question: And the TGI [9]?
Answer: Its TGI is over 100 µM.

Question: What does the source list for `Cc1c2oc3c(C)ccc(C(=O)NC4C(=O)NC(C(C)C)C(=O)N5CCCC5C(=O)N(C)CC(=O)N(C)C(Cc5ccccc5)C(=O)OC4C)c3nc-2c(C(=O)NC2C(=O)NC(C(C)C)C(=O)N3CCCC3C(=O)N(C)CC(=O)N(C)C(Cc3ccccc3)C(=O)OC2C)c(N)c1=O` (stereo not given) (I: TVP[Sar][NMeF] / II: TVP[Sar][NMeF]; ester I:1-I:C, II:1-II:C; linker I:N-II:N via Actinocin(9to1); configuration not given here)?
Answer: GI50 [1]: 0.000459 µM; TGI [1]: 0.0102 µM; TGI [10]: < 0.01 µM and 0.095 µM; GI50 [3]: 0.000346 µM; TGI [3]: 0.00414 µM; GI50 [5]: < 0.01 µM and 0.00074 µM; TGI [5]: < 0.01 µM and 0.0206 µM; TGI [6]: < 0.01 µM and 0.0453 µM; TGI [7]: < 0.0109 µM and 0.033 µM; GI50 [9]: < 0.01 µM and 0.00426 µM; TGI [9]: < 0.01 µM and 0.0188 µM

Question: Which TGI [2] does the source give for `Oc1ccc(Cc2cc(Cl)cc(Cl)c2O)cc1Cl` here?
Answer: Its TGI is 49.6 µM.

Question: And the TGI [10]?
Answer: The TGI was 27.1 µM.

Question: And the TGI [3]?
Answer: The TGI was 55.6 µM.

Question: What about the TGI [4] of the same compound?
Answer: The TGI was 40.2 µM.

Question: And the TGI [5]?
Answer: The TGI was 32.4 µM.

Question: And the TGI [6]?
Answer: Its TGI is 36.6 µM.

Question: What about the TGI [7] of the same compound?
Answer: Its TGI is 58.3 µM.

Question: And the TGI [8]?
Answer: The TGI was 60.5 µM.

Question: What about the TGI [9] of the same compound?
Answer: The TGI was 27.9 µM.

Question: What does the source list for `COc1cccc2c1n([O-])c1cccc(OC)c1[n+]2=O`?
Answer: GI50 [1]: 3.49 µM; TGI [1]: 35.7 µM; GI50 [2]: 10.6 µM; TGI [2]: 29.6 µM; GI50 [10]: 10.9 µM; TGI [10]: 36.2 µM; GI50 [3]: 4.97 µM; TGI [3]: > 100 µM; GI50 [4]: 6.1 µM; TGI [4]: 28.8 µM; GI50 [5]: 3.05 µM; TGI [5]: 14.4 µM; GI50 [6]: 17.6 µM; TGI [6]: > 100 µM; GI50 [8]: 10.5 µM; TGI [8]: 28.9 µM; GI50 [9]: 9.22 µM; TGI [9]: 27.4 µM

Reference: PubChem BioAssay (NCI)
